| Compound | melting point |
| --- | --- |
| N#CCC(=O)N[C@H]1CC[C@H](CCN2CCN(c3cccc4c3CCC4)CC2)CC1 [Example 456, 2-Cyano-N-{4-[2-(4-indan-4-ylpiperazin-1-yl)ethyl]cyclohexyl}acetamide] | 175 °C |
| N#CCC(=O)N[C@H]1CC[C@H](CCN2CCN(c3cc(C(F)(F)F)c(Cl)cc3Cl)CC2)CC1 [Example 423, 2-Cyano-N-(4-{2-[4-(2,4-dichloro-5-trifluoromethylphenyl)piperazin-1-yl]ethyl}cyclohexyl)acetamide] | 193 °C |
| CC(=O)CCC(=O)N[C@H]1CC[C@H](CCN2CCN(c3cccc(C(F)(F)F)c3)CC2)CC1 [Example 191, 4-Oxo-pentanoic acid (4-{2-[4-(3-trifluoromethylphenyl)piperazin-1-yl]ethyl}cyclohexyl)amide] | 159 °C |
| CC(=O)CN1CCC(CCN2CCC(c3cccc4c3CCC4)CC2)CC1.Cl.Cl | 339 °C |
| N#CCCCC(=O)N[C@H]1CC[C@H](CCN2CCN(c3cc(C(F)(F)F)cc(C(F)(F)F)c3)CC2)CC1 [Example 184, N-(4-{2-[4-(3,5-Bistrifluoromethylphenyl)piperazin-1-yl]ethyl}cyclohexyl)-4-cyanobutanamide] | 166 °C |
| N#CCCCC(=O)N[C@H]1CC[C@H](CCN2CCN(c3cc(F)cc(F)c3)CC2)CC1 [Example 254, 4-Cyano-N-(4-{2-[4-(3,5-difluorophenyl)piperazin-1-yl]ethyl}cyclohexyl)butanamide] | 165 °C |
| COCC(=O)N[C@H]1CC[C@H](CCN2CCN(c3cccc(F)c3F)CC2)CC1 [Example 91, N-(4-{2-[4-(2,3-Difluorophenyl)-piperazin-1-yl]ethyl}cyclohexyl)-2-methoxyacetamide] | 155 °C |
| CCc1cccc(C2=CCN(CC[C@H]3CC[C@H](NC(=O)CC#N)CC3)CC2)c1 | 158 °C |
| CC(=O)CN1CCC(CCN2CCN(c3cccc(C(C)(C)C)c3)CC2)CC1.Cl.Cl | 257 °C |
| CC(=O)CN1CCC(CCN2CCN(c3cc(C#N)cc(C(F)(F)F)c3)CC2)CC1.Cl.Cl | 280 °C |
| CC(C)(C#N)C(=O)N[C@H]1CC[C@H](CCN2CCN(c3cccc(C(F)(F)F)c3)CC2)CC1 [Example 282, 2-Cyano-2,2-dimethyl-N-(4-{2-[4-(3-trifluoromethylphenyl)-piperazin-1-yl]ethyl}cyclohexyl)-acetamide] | 150 °C |
| CC(=O)CN1CCC(CCN2CCN(c3ccc(Cl)c(Cl)c3)CC2)CC1 [Example 495, 1-(4-{2-[4-(3,4-Dichlorophenyl)-piperazin-1-yl]ethyl}piperidin-1-yl)propan-2-one] | 114 °C |
| CC(=O)CN1CCC(CCN2CCN(c3ccc(C)c(C)c3)CC2)CC1.Cl.Cl | 275 °C |
| CCCC(=O)CN1CCC(CCN2CCN(c3cccc4c3CCC4)CC2)CC1.Cl.Cl | 270 °C |
| CC(=O)CN1CCC(CCN2CCN(c3cccc(C(O)C(C)C)c3)CC2)CC1 (centres unmarked) [Example 608, 1-[4-(2-{4-[3-(1-Hydroxy-2-methylpropyl)phenyl]piperazin-1-yl}ethyl)piperidin-1-yl]propan-2-one] | 78 °C |
| Cc1ccc(Cl)cc1N1CCN(CC[C@H]2CC[C@H](NC(=O)CCCC#N)CC2)CC1 [Example 248, N-(4-{2-[4-(5-Chloro-2-methylphenyl)piperazin-1-yl]ethyl}cyclohexyl)-4-cyanobutanamide] | 152 to 153 °C |
| CC(=O)C(=O)N1CCC(CCN2CCN(c3cccc(Cl)c3Cl)CC2)CC1.Cl | 244 °C |
| CC(=O)CN1CCC(CCN2CCN(c3cccc4ncccc34)CC2)CC1.Cl.Cl | 295 °C |
| Cc1cccc(N2CCN(CC[C@H]3CC[C@H](NC(=O)CC#N)CC3)CC2)c1 [Example 166, 2-Cyano-N-{4-[2-(4-m-tolylpiperazin-1-yl)ethyl]cyclohexyl}acetamide] | 175 °C |
| N#CCCCC(=O)N[C@H]1CC[C@H](CCN2CCc3cc(C#N)ccc3C2)CC1 [Example 558, 4-Cyano-N-{4-[2-(6-cyano-3,4-dihydro-1H-isoquinolin-2-yl)ethyl]cyclohexyl}butanamide] | 177 °C |
| O=C(N[C@H]1CC[C@H](CCN2CCN(c3cccc(C(F)(F)F)c3F)CC2)CC1)C1=COCCC1 [Example 476] | 207 °C |
| COCCCC(=O)N[C@H]1CC[C@H](CCN2CCN(c3cccc(C)c3)CC2)CC1 [Example 675, 4-Methoxy-N-{4-[2-(4-m-tolylpiperazin-1-yl)ethyl]cyclohexyl}butanamide] | 148 °C |
| CS(=O)(=O)c1cccc(N2CCN(CC[C@H]3CC[C@H](NC(=O)CCC(F)(F)F)CC3)CC2)c1 [Example 469, 4,4,4-Trifluoro-N-(4-{2-[4-(3-methanesulfonylphenyl)piperazin-1-yl]ethyl}cyclohexyl)butanamide] | 205 °C |
| N#CCCCC(=O)N[C@H]1CC[C@H](CCN2CCN(c3cc(Cl)ccc3Cl)CC2)CC1 [Example 371, 4-Cyano-N-(4-{2-[4-(2,5-dichlorophenyl)piperazin-1-yl]ethyl}cyclohexyl)butanamide] | 179 °C |

| Compound | melting point |
| --- | --- |
| Cc1cc(N2CCN(CC[C@H]3CC[C@H](NC(=O)CC#N)CC3)CC2)c(Cl)cc1F [Example 389, N-(4-{2-[4-(2-Chloro-4-fluoro-5-methylphenyl)piperazin-1-yl]ethyl}cyclohexyl)-2-cyanoacetamide] | 177 °C |
| CC(=O)CN1CCC(CCN2CC=C(c3cc(C(F)(F)F)ccc3F)CC2)CC1.Cl.Cl | 282 °C |
| N#CCCC(=O)N1CCC(CCN2CCN(c3cccc(Cl)c3Cl)CC2)CC1 [Example 733, 4-(4-{2-[4-(2,3-Dichlorophenyl)piperazin-1-yl]ethyl}piperidin-1-yl)-4-oxobutanonitrile] | 94 °C |
| N#CCCCC(=O)N[C@H]1CC[C@H](CCN2CCN(c3cccc(C(F)F)c3)CC2)CC1 [Example 364, 4-Cyano-N-(4-{2-[4-(3-difluoromethylphenyl)piperazin-1-yl]ethyl}cyclohexyl)butanamide] | 155 °C |
| Cc1c(N2CCN(CC[C@H]3CC[C@H](NC(=O)CC#N)CC3)CC2)cccc1C(F)(F)F [Example 178, 2-Cyano-N-(4-{2-[4-(2-methyl-3-trifluoromethylphenyl)piperazin-1-yl]ethyl}cyclohexyl)acetamide] | 181 °C |
| CC(O)c1cccc(N2CCN(CC[C@H]3CC[C@H](NC(=O)CC(F)(F)F)CC3)CC2)c1 (some centres unmarked) [Example 477, 3,3,3-trifluoro-N-[4-(2-{4-[3-(1-hydroxyethyl)phenyl]piperazin-1-yl}ethyl)cyclohexyl]propanamide] | 190 °C |
| O=C(CC(F)(F)F)N[C@H]1CC[C@H](CCN2CCN(c3ccc(F)cc3)CC2)CC1 [Example 284, 3,3,3-Trifluoro-N-(4-{2-[4-(4-fluorophenyl)piperazin-1-yl]ethyl}cyclohexyl)propanamide] | 200 °C |
| COCCCC(=O)N[C@H]1CC[C@H](CCN2CC=C(c3cccc(C(F)(F)F)c3)CC2)CC1 | 145 °C |
| N#CCC(=O)N[C@H]1CC[C@H](CCN2CCN(c3cc(Cl)ccc3F)CC2)CC1 [Example 171, N-(4-{2-[4-(5-Chloro-2-fluorophenyl)piperazin-1-yl]ethyl}cyclohexyl)-2-cyanoacetamide] | 200 °C |
| O=C(N[C@H]1CC[C@H](CCN2CCN(c3cccc(C(F)(F)F)c3)CC2)CC1)C1=CCCC1 [Example 45, Cyclopent-1-enecarboxylic acid (4-{2-[4-(3-trifluoromethyl-phenyl)piperazin-1-yl]ethyl}cyclohexyl)amide] | 175 °C |
| O=C(N[C@H]1CC[C@H](CCN2CCN(c3ccc(F)cc3)CC2)CC1)C1=CCCC1 [Example 431, Cyclopent-1-enecarboxylic acid (4-{2-[4-(4-fluorophenyl)-piperazin-1-yl]ethyl}cyclohexyl) amide] | 227 °C |
| CC(=O)CN1CCC(CCN2CCN(c3cc(F)c(F)cc3F)CC2)CC1 [Example 744, 1-(4-{2-[4-(2,4,5-Trifluoro-phenyl)-piperazin-1-yl]ethyl}piperidin-1-yl)propan-2-one] | 68 °C |
| CC(=O)CN1CCC(CCN2CCN(c3cc(Cl)ccc3Cl)CC2)CC1.Cl.Cl | 172 °C |
| N#CCCCC(=O)N[C@H]1CC[C@H](CCN2CC=C(c3ccc(Cl)cc3)CC2)CC1 | 198 °C |
| N#CCCCC(=O)N[C@H]1CC[C@H](CCN2CCN(c3ccc(Cl)cc3F)CC2)CC1 [Example 471, N-(4-{2-[4-(4-Chloro-2-fluorophenyl)piperazin-1-yl]ethyl}cyclohexyl)-4-cyanobutanamide] | 171 °C |
| N#CCCCC(=O)N[C@H]1CC[C@H](CCN2CC=C(c3ccccc3)CC2)CC1 | 171 °C |
| COCCCC(=O)N[C@H]1CC[C@H](CCN2CCN(c3ccc(F)cc3F)CC2)CC1 [Example 504, N-(4-{2-[4-(2,4-Difluorophenyl)piperazin-1-yl]ethyl}cyclohexyl)-4-methoxybutanamide] | 185 °C |
| O=C(COc1ccc(F)cc1)N[C@H]1CC[C@H](CCN2CCN(c3ccc(F)cc3F)CC2)CC1 [Example 385, N-(4-{2-[4-(2,4-Difluorophenyl)piperazin-1-yl]ethyl}cyclohexyl)-2-(4-fluorophenoxy)acetamide] | 162 °C |
| CCOCC(=O)N[C@H]1CC[C@H](CCN2CC=C(c3ccc(Cl)cc3)CC2)CC1 | 149 °C |
| Cc1ccc(N2CCN(CC[C@H]3CC[C@H](NC(=O)CCCC#N)CC3)CC2)c(F)c1 [Example 485, 4-Cyano-N-(4-{2-[4-(2-fluoro-4-methylphenyl)piperazin-1-yl]ethyl}cyclohexyl)butanamide] | 173 °C |
| N#CCC(=O)N[C@H]1CC[C@H](CCN2CCN(c3cccc(CO)c3)CC2)CC1 [Example 268, 2-Cyano-N-(4-{2-[4-(3-hydroxymethylphenyl)piperazin-1-yl]ethyl}cyclohexyl)acetamide] | 180 °C |
| CC(=O)CN1CCC(CCN2CCN(c3cccc4cccnc34)CC2)CC1.Cl.Cl | 270 °C |
| O=C(N[C@H]1CC[C@H](CCN2CCN(c3cccc(F)c3)CC2)CC1)C1CC=CC1 [Example 408, Cyclopent-3-enecarboxylic acid (4-{2-[4-(3-fluorophenyl)-piperazin-1-yl]ethyl}cyclohexyl) amide] | 215 °C |

From patent US8802678B2, “Carbonylated (aza) cyclohexanes as dopamine D3 receptor ligands” (Bioprojet, priority 2006, dated 2014)
